Reference: patent US20110123482A1, “Methods of Treating Neurological Autoimmune Disorders with Cyclophosphamide” (The Johns Hopkins University, priority 2007, published 2011)
Read-outs that look alike come from different tables or passages of the source.

Experiments:
[1] = tested on: chronic relapsing experimental autoimmune encephalomyelitis (R-EAE) in SJL/J mice; settings: mouse, in vivo
class II MHC molecules = settings: cited from earlier work
RRMS = settings: cited from earlier work

## O=P1(N(CCCl)CCCl)NCCCO1 (stereo not drawn) [CPA, N,N-bis(2-chloroethyl)-1,3,2-oxazaphosphinan-2-amine 2-oxide]
[1]
  rate of induced relapse with PLP reimmunization following CPA treatment: 70%
  spontaneous relapse rate of RR-EAE following CPA treatment: 30%
[1]; 200 mg/kg
  cessation of EAE activity, share of animals: 95%

## glatiramer acetate
Class II MHC molecules
  binding affinity to class II MHC molecules: binds with high affinity
[1]
  induced relapse rate: 10%
  rate of cessation of EAE activity by CPA: 95%
  spontaneous relapse rate: 2%
RRMS; 20 mg GA, compared to placebo controls
  time of treatment to reduce the number of lesions and relapses: approximately 3 months
RRMS; 40 mg daily, compared to controls
  time of treatment to reduce the number of lesions and relapses: less than 3 months
